Results taken from patent US20110313672A1, “CELLULAR ANTIOXIDANT ACTIVITY (CAA) ASSAY” (CORNELL UNIVERSITY, priority 2007, published 2011).
Values joined by “and” are separate entries in the source; they are usually repeats but may differ in a detail not shown here. Equal values may be shown once. “Also recorded” adds a separate entry of the source. Read-outs that look alike come from different tables or passages of the source.

What was measured:
HepG2 cells [1] = test: Cellular antioxidant activity (CAA) assay: inhibition of peroxyl radical-induced DCFH oxidation; format: cell-based, human; details: for CAA value / percent of the antioxidant activity of quercetin in the CAA assay: Example 1; for CAA value: pure compounds, EC50 converted to quercetin equivalents; for percent of the antioxidant activity of quercetin in the CAA assay: summary statement
Procedure: Cells (e.g., human hepatocellular carcinoma cells; HepG2) are seeded at a density of e.g., 6×10^4/well on a 96-well microplate in 100 μL growth medium/well. It is preferred that only the inside wells of e.g., a 96-well microplate are used for the assay, since the outer wells have increased variation compared to that of the inner wells. Twenty-four hours after seeding the growth medium is removed and the wells are washed with PBS. Triplicate wells are treated for 1 h with 100 μL of a test compound (e.g., pure phytochemical compounds or fruit extracts) plus 25 μM DCFH-DA dissolved in treatment medium.
600 μM ABAP is then applied to the cells in 100 μL HBSS and the 96-well microplate is placed into a plate reader e.g., Fluoroskan Ascent FL plate-reader (ThermoLabsystems, Franklin, Mass.) at 37° C. Emission at 538 nm is measured with excitation at 485 nm, for example every 5 min for 1 h. Each plate should include triplicate control and blank wells: control wells contain cells treated with DCFH-DA and oxidant; blank wells contain cells treated with dye and HBSS without oxidant.
A test compound is assayed in multiple wells of e.g., a 96-well cell culture plate. Some wells are washed with 100 μL of phosphate-buffered saline (PBS) prior to the addition of ABAP, while other wells were not washed prior to the addition of ABAP. It was noted that the measured antioxidant activity of some fruit extracts (e.g., blueberries) was different when a PBS wash was used compared to when there was no PBS wash (see Table 2; FIGS. 3 and 4). This is likely due to non-specific binding of certain antioxidant compounds to the outer membrane, or a reduced uptake of the compound, thus the ratio of antioxidant activity values obtained with a PBS wash compared to a non-PBS wash indicates the bioavailability of the test compound. In order to accurately measure the intracellular antioxidant activity of a test compound, a PBS wash prior to the addition of a peroxyl initiator (e.g, ABAP) is necessary. The values obtained for cells assayed using a PBS wash should be compared to values obtained for the same cells assayed without a PBS wash. One of skill in the art can plan and perform experiments on a test compound in the presence and absence of a PBS wash, in order to accurately assess the intracellular antioxidant capacity of the test compound.
After blank subtraction from the fluorescence readings, the area under the curve of fluorescence versus time is integrated to calculate the cellular antioxidant activity (CAA) value at each concentration of pure phytochemical compound or fruit extract as follows:
where ∫SA is the integrated area under the sample fluorescence versus time curve and ∫CA is the integrated area from the control curve. The median effective dose (EC50) was determined for the pure phytochemical compounds and fruit extracts from the median effect plot of log (fa/fu) vs. log (dose), where fa is the fraction affected and fu is the fraction unaffected by the treatment. To quantify intra-experimental variation, the EC50 values are stated as mean±SD for triplicate sets of data obtained from the same experiment. Inter-experimental variation is obtained for some representative pure phytochemical compounds and fruit extracts by averaging the fluorescence values from triplicate wells in each trial to obtain one EC50 value per experiment and calculating the mean±SD for at least four trials. In each experiment, a standard is used, for example quecetin, thus permitting the cellular antioxidant activities for a test compounds to be expressed as μmol quercetin equivalents (QE)/100 μmol compound. Fruit extracts are expressed as μmol QE/100 g fruit. In order to compare the antioxidant quality of different fruits, cellular antioxidant activity (CAA) is also calculated as μmol QE/100 μmol total phenolics.
Human hepatocellular carcinoma HepG2 cells were seeded at a density of 6×10^4/well on a 96-well microplate in 100 μL growth medium/well. […]

HepG2 cells [2] = test: in vitro; details: human, 24 h
Procedure: (§1) Briefly, HepG2 cells are seeded at 4×10^4/well on a 96-well plate in 100 μL growth medium and incubated for 24 h at 37° C. The medium is removed and the cells are washed with PBS. Treatments of fruit extracts or antioxidant compounds in 100 μL treatment medium (Williams' Medium E supplemented with 2 mM L-glutamine and 10 mM Hepes) are applied to the cells and the plates are incubated at 37° C. for 24 h. The treatment medium is removed and the cells are washed with PBS. A volume of 50 μL/well methylene blue staining solution (98% HBSS, 0.67% glutaraldehyde, 0.6% methylene blue) is applied to each well and the plate is incubated at 37° C. for 1 h.
(§2) Excess dye is removed by immersing the plate in fresh deionized water until the water appears clear. The excess water should be tapped out of the wells and the plate allowed to air-dry briefly before addition of 100 μL elution solution (49% PBS, 50% ethanol, 1% acetic acid) to each well. The microplate is then placed on a bench-top shaker for 20 minutes to allow uniform elution. The absorbance is read at 570 nm with blank subtraction using, for example a MRX II DYNEX spectrophotometer (DYNEX Inc., Chantilly, Va.). Concentrations of pure compounds or fruit extracts that decrease the absorbance by more than 10% when compared to the control are considered to be cytotoxic.
(§3) Cytotoxicity was measured using the method of Oliver et al. (31) with modifications by our laboratory (32). […] The medium was removed and the cells were washed with PBS. Treatments of fruit extracts or antioxidant compounds in 100 μL treatment medium (Williams' Medium E supplemented with 2 mM L-glutamine and 10 mM Hepes) were applied to the cells and the plates were incubated at 37° C. for 24 h. The treatment medium was removed and the cells were washed with PBS. A volume of 50 μL/well methylene blue staining solution (98% HBSS, 0.67% glutaraldehyde, 0.6% methylene blue) was applied to each well and the plate was incubated at 37° C. for 1 h. The dye was removed and the plate was immersed in fresh deionized water three times, or until the water was clear. The water was tapped out of the wells and the plate was allowed to air-dry briefly before 100 μL elution solution (49% PBS, 50% ethanol, 1% acetic acid) was added to each well. The microplate was placed on a bench-top shaker for 20 minutes to allow uniform elution. The absorbance was read at 570 nm with blank subtraction using the MRX II DYNEX spectrophotometer (DYNEX Inc., Chantilly, Va.). Concentrations of pure compounds or fruit extracts that decreased the absorbance by more than 10% when compared to the control were considered to be cytotoxic.
(§4) The median cytotoxic concentration (CC50) was calculated for each fruit.
(§5) Briefly, HepG2 cells were seeded at 4×10^4/well on a 96-well plate in 100 μL growth medium and incubated for 24 h at 37° C. The medium was removed, and the cells were washed with PBS. Flavonoids in 100 μL growth medium were applied to the cells, and the plates were incubated at 37° C. for 24 h. The medium was removed, and the cells were washed with PBS before a volume of 50 μL/well methylene blue staining solution (98% HBSS, 0.67% glutaraldehyde, 0.6% methylene blue) was applied to each well, and the plate was incubated at 37° C. for 1 h. The dye was removed, and the plate was immersed in fresh deionized water until the water was clear. The water was tapped out of the wells, and the plate was allowed to air-dry briefly before 100 μL of elution solution (49% PBS, 50% ethanol, 1% acetic acid) was added to each well. The microplate was placed on a benchtop shaker for 20 min to allow uniform
(§6) elution. The absorbance was read at 570 nm with blank subtraction using the MRX II Dynex spectrophotometer (Dynex Inc., Chantilly, Va.). The median cytotoxic concentration (CC50) was calculated for each flavonoid.

in vitro = details: human
Procedure: as §1, §2, §3, §4, §5, §6

[3] = Oxygen radical absorbance capacity (ORAC) assay; details: Example 3; flavonoids; mean ± SD, n ≧ 3
Procedure: The peroxyl radical scavenging efficacy of selected fruits was measured using the ORAC assay (Prior, R. L., et al (2003) J. Agric. Food Chem. 51:3273-3279). Briefly, 20 μL of blank, Trolox standard, or fruit extracts in 75 mM potassium phosphate buffer, pH 7.4 (working buffer), was added to triplicate wells in a black, clear-bottom, 96-well microplate. The triplicate samples were distributed throughout the microplate and were not placed side-by-side, to avoid any effects on readings due to location. In addition, no outside wells were used, as use of those wells results in greater variation. A volume of 200 μL of 0.96 μM fluorescein in working buffer was added to each well and incubated at 37° C. for 20 min, with intermittent shaking, before the addition of 20 μL of freshly prepared 119 mM ABAP in working buffer using a 12-channel pipetter. The microplate was immediately inserted into a Fluoroskan Ascent FL plate reader (ThermoLabsystems) at 37° C. The decay of fluorescence at 538 nm was measured with excitation at 485 nm every 4.5 min for 2.5 h. The areas under the fluorescence versus time curve for the samples minus the area under the curve for the blank were calculated and compared to a standard curve of the areas under the curve for 6.25, 12.5, 25, and 50 μM Trolox standards minus the area under the curve for blank. ORAC values were expressed as mean micromoles of Trolox equivalents (TE) per 100 g of fruit±SD for triplicate data from one experiment.
ORAC measurements were performed as described herein in Example 2.

[4] = Homo sapiens, HepG2, Example 1, Table 1, PBS wash, pure phytochemical compounds, mean ± SD, n=3, read-out: EC50 for inhibition of peroxyl radical-induced DCFH oxidation
[5] = Homo sapiens, HepG2, Example 1, Table 1, no PBS wash, pure phytochemical compounds, mean ± SD, n=3, read-out: EC50 for inhibition of peroxyl radical-induced DCFH oxidation
[6] = CAA assay, either protocol or protocol not specified
[7] = Example 3, Table 7, PBS wash, flavonoids, mean ± SD, n=3
[8] = Example 3, Table 7, no PBS wash, flavonoids, mean ± SD, n=3

Row | Molecule | CAA value (HepG2 cells [1]; no PBS wash) | percent of the antioxidant activity of quercetin in the CAA assay (HepG2 cells [1]) | cellular antioxidant activity, result in words (HepG2 cells [1]; [6]) | EC50 (HepG2 cells [1]; [7]) | EC50 (HepG2 cells [1]; [8]) | ORAC [3] | other results
1 | O=C(O)c1cc(O)c(O)c(O)c1 [Gallic acid] | 9.08±0.95 μmol QE/100 μmol | less than ten percent | – | – | – | – | EC50 (HepG2 cells [1]; [4]): 335 ± 26 µM; EC50 (HepG2 cells [1]; [5]): 65.4 ± 7.3 µM; EC50 (HepG2 cells [1]; Homo sapiens, HepG2, Table 2, no PBS wash, mean ± SD over the trials, read-out: Interexperimental EC50): 64.3 ± 10.7 µM; EC50 (HepG2 cells [1]; Homo sapiens, HepG2, Table 2, no PBS wash, one line per trial (trials 1-5), n=3, read-out: Intraexperimental EC50): 65.4 ± 7.3 µM; EC50 (HepG2 cells [1]; Homo sapiens, HepG2, Table 3, PBS wash, mean ± SD over the trials, read-out: Interexperimental EC50): 318 ± 36 µM; EC50 (HepG2 cells [1]; Homo sapiens, HepG2, Table 3, PBS wash, one line per trial (trials 1-5), n=3, read-out: Intraexperimental EC50): 289 ± 12 µM; Cytotoxicity (cytotoxic concentration) (HepG2 cells [2]): >500 µM
2 | O=c1cc(-c2ccccc2)oc2cc(O)cc(O)c12 [chrysin] | – | – | no activity | no activity | no activity | – | CC50 at 24 h (in vitro): > 200 µM
3 | O=C1O[C@H]([C@@H](O)CO)C(O)=C1O [Ascorbic acid, ascorbic acid] | 8.84±1.18 μmol QE/100 μmol | less than ten percent | – | – | – | – | EC50 (HepG2 cells [1]; [4]): > 500 µM; EC50 (HepG2 cells [1]; [5]): 67.5 ± 9.4 µM; cellular antioxidant activity, result in words (HepG2 cells [1]; PBS wash protocol): low; Cytotoxicity (cytotoxic concentration) (HepG2 cells [2]): >500 µM
4 | O=c1c(-c2ccc(O)cc2)coc2cc(O)ccc12 [daidzein] | – | – | no cellular antioxidant activity | no activity | no activity | 8.52 ± 2.11 cde μmol of TE/μmol | CC50 at 24 h (in vitro; HepG2 cells): > 100 µM
5 | C[C@@H]1O[C@@H](OC[C@H]2O[C@@H](Oc3c(-c4ccc(O)c(O)c4)oc4cc(O)cc(O)c4c3=O)[C@H](O)[C@@H](O)[C@@H]2O)[C@H](O)[C@H](O)[C@H]1O [rutin] | – | – | no activity | no activity | no activity | – | CC50 at 24 h (in vitro; HepG2 cells): > 200 µM
6 | O=c1cc(-c2ccc(O)cc2)oc2cc(O)cc(O)c12 [apigenin] | – | – | no cellular antioxidant activity; also recorded: no CAA | no activity | no activity | 10.7 ± 1.5 bc μmol of TE/μmol | CC50 at 24 h (in vitro): > 80 µM
7 | (+)-catechin | 2.03±0.24 μmol QE/100 μmol | less than ten percent | low or no cellular antioxidant activity; also recorded: low CAA | – | – | 12.4±4.0 μmol of TE/μmol and 12.4 ± 4.0 ab μmol of TE/μmol | EC50 (HepG2 cells [1]; Example 1, Table 1, PBS wash, pure phytochemical compounds, mean ± SD, n=3, read-out: EC50 for inhibition of peroxyl radical-induced DCFH oxidation): > 500 µM; EC50 (HepG2 cells [1]; Example 1, Table 1, no PBS wash, pure phytochemical compounds, mean ± SD, n=3, read-out: EC50 for inhibition of peroxyl radical-induced DCFH oxidation): 292 ± 32 µM; EC50 (HepG2 cells [1]; Example 3, Table 7, PBS wash, flavonoids, mean ± SD, n=3, read-out: EC50): > 800 µM; CAA (HepG2 cells [1]; Example 3, Table 7, no PBS wash): 2.5 ± 0.1 μmol of QE/100 μmol; EC50 (HepG2 cells [1]; Example 3, text, no PBS wash, read-out: EC50): 360 ± 17 µM; cellular antioxidant activity, result in words (HepG2 cells [1]; PBS wash protocol): very low, unquantifiable, activity; cellular antioxidant activity, result in words (HepG2 cells [1]; PBS wash protocol, listed as catechin): low and low activity at the concentrations tested
